Test results as given in ChEMBL document CHEMBL4507276 (2021).

Assays:
[1] = target: T1, Rhodopsin kinase GRK7 (Homo sapiens) (UniProt Q8WTQ7); assay: GRK7 Invitrogen selectivity data (BI); details: Compound concentration 3.0 uM
T1 sequence (whole entry): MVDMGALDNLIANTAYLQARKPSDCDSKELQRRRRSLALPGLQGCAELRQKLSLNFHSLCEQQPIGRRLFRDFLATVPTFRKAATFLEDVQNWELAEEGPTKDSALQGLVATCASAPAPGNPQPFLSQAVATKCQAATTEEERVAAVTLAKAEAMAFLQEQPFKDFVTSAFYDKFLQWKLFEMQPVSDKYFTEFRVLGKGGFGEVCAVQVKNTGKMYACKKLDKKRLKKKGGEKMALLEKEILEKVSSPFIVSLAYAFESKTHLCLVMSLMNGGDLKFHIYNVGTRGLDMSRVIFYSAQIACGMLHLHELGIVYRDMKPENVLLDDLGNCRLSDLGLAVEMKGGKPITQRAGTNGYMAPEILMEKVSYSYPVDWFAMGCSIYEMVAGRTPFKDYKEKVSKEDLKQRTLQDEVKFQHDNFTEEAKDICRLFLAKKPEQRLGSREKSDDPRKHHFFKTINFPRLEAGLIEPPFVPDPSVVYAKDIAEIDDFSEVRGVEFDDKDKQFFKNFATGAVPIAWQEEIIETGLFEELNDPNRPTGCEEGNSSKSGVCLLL

[2] = target: Angiotensin-converting enzyme 2 (Homo sapiens) (UniProt Q9BYF1); assay: ACE-2(HU) Cerep selectivity data (BI); details: Compound concentration 20.0 uM
Sequence of Angiotensin-converting enzyme 2 (Homo sapiens) (Q9BYF1 18-805 limits assumed): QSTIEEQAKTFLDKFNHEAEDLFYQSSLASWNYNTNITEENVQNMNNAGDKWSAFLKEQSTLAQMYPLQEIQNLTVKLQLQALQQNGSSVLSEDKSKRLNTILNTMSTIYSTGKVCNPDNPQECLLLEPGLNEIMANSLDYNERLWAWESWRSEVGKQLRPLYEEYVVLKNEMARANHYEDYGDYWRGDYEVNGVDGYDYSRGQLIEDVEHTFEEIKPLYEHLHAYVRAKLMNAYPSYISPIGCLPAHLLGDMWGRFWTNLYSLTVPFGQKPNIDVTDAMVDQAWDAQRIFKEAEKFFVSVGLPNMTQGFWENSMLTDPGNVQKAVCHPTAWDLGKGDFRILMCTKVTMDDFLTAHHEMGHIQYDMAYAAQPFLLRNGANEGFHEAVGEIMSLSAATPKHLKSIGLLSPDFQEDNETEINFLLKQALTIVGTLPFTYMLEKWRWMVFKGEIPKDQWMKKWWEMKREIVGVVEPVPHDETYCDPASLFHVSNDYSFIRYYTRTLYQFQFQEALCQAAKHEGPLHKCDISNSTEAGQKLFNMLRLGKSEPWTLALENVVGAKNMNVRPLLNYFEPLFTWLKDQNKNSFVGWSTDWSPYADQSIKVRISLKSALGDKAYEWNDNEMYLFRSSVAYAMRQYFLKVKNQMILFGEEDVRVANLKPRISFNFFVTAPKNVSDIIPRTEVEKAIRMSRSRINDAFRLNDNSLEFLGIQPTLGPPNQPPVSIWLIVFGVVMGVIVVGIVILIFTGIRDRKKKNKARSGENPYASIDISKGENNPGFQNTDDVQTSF

[3] = target: Casein kinase II subunit alpha' (Homo sapiens) (UniProt P19784); assay: CSNK2A2 Invitrogen selectivity data (BI); details: Compound concentration 3.0 uM
Sequence of Casein kinase II subunit alpha' (Homo sapiens) (P19784 whole entry, looked up): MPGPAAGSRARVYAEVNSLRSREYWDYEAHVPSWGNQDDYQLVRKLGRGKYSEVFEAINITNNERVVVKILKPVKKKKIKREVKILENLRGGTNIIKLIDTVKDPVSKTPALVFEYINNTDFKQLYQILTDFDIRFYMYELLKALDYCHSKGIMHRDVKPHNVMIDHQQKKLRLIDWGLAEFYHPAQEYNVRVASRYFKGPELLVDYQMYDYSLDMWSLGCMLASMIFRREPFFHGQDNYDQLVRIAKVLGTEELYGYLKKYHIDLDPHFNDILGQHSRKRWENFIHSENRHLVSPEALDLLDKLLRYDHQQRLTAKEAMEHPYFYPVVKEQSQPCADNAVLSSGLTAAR

[4] = target: Tyrosine-protein kinase JAK2 (Homo sapiens) (UniProt O60674); assay: JAK2 Invitrogen selectivity data (BI); details: Compound concentration 3.0 uM
Sequence of Tyrosine-protein kinase JAK2 (Homo sapiens) (O60674 whole entry): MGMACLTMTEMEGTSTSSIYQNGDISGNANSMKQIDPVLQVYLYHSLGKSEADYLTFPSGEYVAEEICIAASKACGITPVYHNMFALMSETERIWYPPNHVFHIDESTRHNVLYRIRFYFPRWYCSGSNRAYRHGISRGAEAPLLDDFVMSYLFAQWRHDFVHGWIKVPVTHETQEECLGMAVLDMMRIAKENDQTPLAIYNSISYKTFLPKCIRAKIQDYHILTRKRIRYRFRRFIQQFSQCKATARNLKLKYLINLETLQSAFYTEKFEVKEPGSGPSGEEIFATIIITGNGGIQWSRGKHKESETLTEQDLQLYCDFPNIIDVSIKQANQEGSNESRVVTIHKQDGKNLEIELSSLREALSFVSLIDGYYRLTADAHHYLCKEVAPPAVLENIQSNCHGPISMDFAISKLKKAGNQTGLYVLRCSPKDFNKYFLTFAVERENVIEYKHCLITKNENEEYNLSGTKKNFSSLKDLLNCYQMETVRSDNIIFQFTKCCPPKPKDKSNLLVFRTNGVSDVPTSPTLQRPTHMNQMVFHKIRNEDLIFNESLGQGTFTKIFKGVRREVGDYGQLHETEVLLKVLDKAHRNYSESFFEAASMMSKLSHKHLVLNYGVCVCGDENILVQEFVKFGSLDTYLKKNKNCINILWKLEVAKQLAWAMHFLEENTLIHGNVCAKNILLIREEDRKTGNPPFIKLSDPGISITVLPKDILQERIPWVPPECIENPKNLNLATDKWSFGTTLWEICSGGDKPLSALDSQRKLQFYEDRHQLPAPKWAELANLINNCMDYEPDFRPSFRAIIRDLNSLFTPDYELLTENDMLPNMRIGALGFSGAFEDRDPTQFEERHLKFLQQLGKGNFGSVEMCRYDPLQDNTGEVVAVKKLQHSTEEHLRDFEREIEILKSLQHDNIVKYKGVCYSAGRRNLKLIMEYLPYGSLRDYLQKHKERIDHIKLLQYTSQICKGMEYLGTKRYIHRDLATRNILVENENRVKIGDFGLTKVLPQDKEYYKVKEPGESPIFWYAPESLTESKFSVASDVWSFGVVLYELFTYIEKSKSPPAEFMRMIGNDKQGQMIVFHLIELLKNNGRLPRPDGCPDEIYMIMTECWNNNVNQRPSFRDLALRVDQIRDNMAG

[5] = target: T2, Homeodomain-interacting protein kinase 4 (Homo sapiens) (UniProt Q8NE63); assay: HIPK4 Invitrogen selectivity data (BI); details: Compound concentration 3.0 uM
T2 sequence (whole entry): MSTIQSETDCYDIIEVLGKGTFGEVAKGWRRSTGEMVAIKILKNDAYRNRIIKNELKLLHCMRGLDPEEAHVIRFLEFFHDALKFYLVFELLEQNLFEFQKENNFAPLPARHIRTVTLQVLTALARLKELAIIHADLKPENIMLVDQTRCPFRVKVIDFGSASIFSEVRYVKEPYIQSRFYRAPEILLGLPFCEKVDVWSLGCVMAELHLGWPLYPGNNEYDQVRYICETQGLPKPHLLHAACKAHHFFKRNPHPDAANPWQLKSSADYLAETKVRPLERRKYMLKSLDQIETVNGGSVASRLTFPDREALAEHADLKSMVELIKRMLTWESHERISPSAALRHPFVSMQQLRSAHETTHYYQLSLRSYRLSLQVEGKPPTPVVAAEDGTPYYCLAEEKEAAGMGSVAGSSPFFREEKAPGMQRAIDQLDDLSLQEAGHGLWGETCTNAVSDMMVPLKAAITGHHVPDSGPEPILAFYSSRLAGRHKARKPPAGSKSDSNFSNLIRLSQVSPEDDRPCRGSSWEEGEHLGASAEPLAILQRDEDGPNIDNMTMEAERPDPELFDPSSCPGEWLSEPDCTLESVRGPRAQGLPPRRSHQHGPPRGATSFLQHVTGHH

[6] = target: Calcium/calmodulin-dependent protein kinase kinase 2 (Homo sapiens) (UniProt Q96RR4); assay: CAMKK2 Invitrogen selectivity data (BI); details: Compound concentration 3.0 uM
Sequence of Calcium/calmodulin-dependent protein kinase kinase 2 (Homo sapiens) (Q96RR4 2-588 limits assumed): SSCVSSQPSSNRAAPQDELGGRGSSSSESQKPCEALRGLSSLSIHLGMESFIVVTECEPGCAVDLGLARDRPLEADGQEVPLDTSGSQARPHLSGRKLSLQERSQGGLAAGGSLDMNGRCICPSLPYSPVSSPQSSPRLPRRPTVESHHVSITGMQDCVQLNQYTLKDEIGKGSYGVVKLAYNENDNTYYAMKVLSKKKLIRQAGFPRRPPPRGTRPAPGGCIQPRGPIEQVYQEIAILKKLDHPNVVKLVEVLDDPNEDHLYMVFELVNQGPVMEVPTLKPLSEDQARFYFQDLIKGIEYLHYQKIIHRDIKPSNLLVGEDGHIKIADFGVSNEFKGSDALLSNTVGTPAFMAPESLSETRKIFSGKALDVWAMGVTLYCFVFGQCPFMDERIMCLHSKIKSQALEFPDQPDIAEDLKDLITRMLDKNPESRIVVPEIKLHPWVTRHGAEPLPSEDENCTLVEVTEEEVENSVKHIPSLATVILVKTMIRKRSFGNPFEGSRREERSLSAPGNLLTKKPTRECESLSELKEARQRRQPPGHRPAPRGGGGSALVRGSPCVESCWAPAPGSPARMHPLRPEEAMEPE

[7] = target: T3, MAP/microtubule affinity-regulating kinase 4 (Homo sapiens) (UniProt Q96L34); assay: MARK4 Invitrogen selectivity data (BI); details: Compound concentration 3.0 uM
T3 sequence (whole entry): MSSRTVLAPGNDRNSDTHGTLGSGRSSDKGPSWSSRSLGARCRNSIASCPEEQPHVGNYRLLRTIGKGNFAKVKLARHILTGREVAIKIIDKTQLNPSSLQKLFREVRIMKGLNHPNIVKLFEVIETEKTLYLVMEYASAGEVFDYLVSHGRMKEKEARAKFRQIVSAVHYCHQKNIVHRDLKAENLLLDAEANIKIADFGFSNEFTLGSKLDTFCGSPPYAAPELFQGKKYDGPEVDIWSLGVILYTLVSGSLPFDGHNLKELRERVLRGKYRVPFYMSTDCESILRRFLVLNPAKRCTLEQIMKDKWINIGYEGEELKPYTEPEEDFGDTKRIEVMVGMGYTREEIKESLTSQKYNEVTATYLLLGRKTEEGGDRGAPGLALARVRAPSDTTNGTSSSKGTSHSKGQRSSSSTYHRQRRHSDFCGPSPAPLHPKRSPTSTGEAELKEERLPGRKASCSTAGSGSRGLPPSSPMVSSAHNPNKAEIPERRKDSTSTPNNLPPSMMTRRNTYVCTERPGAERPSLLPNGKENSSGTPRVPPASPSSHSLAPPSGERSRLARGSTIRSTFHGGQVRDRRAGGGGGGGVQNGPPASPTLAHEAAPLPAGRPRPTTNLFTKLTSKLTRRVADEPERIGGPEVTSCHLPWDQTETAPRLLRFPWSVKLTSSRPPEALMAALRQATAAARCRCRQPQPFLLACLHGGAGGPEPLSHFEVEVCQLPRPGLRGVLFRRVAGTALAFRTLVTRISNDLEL

[8] = target: T4, Muscle, skeletal receptor tyrosine-protein kinase (Homo sapiens) (UniProt O15146); assay: MUSK Invitrogen selectivity data (BI); details: Compound concentration 3.0 uM
T4 sequence (whole entry): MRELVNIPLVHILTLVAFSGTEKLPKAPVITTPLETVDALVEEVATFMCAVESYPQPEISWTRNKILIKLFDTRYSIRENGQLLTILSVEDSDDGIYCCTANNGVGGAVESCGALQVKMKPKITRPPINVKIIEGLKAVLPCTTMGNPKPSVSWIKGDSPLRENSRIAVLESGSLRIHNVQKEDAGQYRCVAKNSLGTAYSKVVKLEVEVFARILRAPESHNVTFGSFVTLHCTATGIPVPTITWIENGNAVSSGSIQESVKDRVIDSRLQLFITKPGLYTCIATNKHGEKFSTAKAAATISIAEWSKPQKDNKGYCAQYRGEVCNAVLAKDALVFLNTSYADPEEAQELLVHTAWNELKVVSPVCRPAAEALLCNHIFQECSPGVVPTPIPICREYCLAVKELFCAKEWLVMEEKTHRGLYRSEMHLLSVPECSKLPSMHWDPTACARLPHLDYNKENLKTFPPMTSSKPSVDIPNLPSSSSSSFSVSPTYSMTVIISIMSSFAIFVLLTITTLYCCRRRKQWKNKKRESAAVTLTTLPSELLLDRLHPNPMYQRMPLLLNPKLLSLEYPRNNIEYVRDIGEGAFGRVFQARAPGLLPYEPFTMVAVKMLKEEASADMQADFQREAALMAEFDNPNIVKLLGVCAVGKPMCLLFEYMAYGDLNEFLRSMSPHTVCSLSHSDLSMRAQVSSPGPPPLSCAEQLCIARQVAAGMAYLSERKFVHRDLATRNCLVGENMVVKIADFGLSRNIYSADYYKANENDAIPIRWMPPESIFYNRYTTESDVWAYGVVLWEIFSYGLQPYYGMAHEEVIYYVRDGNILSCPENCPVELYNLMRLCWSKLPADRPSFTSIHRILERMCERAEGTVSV

Measured: residual activity

CN(C)C(=O)Cn1cc(-c2nc([C@@](C)(c3ccc(-c4cnc(N)nc4)cc3)C3CC3)no2)cn1 [BI 665915]
inactive: [1] 101% | [2] 132% | [3] 94.5% | [4] 91% | [5] 98.5% | [6] 98% | [7] 104% | [8] 97.5%
